The record followed here is paper PMC10342305, “Identification of N-Acyl Hydrazones as New Non-Zinc-Binding MMP-13 Inhibitors by Structure-Based Virtual Screening Studies and Chemical Optimization” (International Journal of Molecular Sciences, 2023).

The structures appear in SMILES notation. A value given as a limit tells only on which side of the number the result lay.

One data set deals with T1, MMP-14 (Homo sapiens, UniProt P50281).
T1 construct: Recombinant human MMP-14 catalytic domain; gift from Prof; Gillian Murphy (Department of Oncology, University of Cambridge, UK)
The data set is described as follows: Fluorometric enzyme inhibition assay on MMP-14 catalytic domain. In kind it is biochemical. The settings on record: mean ± SD of three independent experiments. Here is the method:
(§1) Recombinant human MMP-14 catalytic domain was a kind gift from Prof. Gillian Murphy (Department of Oncology, University of Cambridge, UK). Pro-MMP-1, pro-MMP-2, pro-MMP-9, and pro-MMP-13 were purchased from Merck Millipore (Burlington, MA, USA). p-Aminophenylmercuric acetate (APMA) was from Sigma-Aldrich (St. Louis, MO, USA).
(§2) For assay measurements, the purchased compound stock solutions (10 mM in DMSO) were further diluted for each MMP in the fluorometric assay buffer (FAB: Tris 50 mM, pH = 7.5, NaCl 150 mM, CaCl2 10 mM, Brij 35 0.05%, and DMSO 1%), following the protocol already reported. […] The assays were performed in triplicate with a total volume of 200 μL per well in 96-well microtitre plates (Corning, black, NBS, Turin, Italy). The MMP inhibition activity was expressed in relative fluorescent units (RFU). The percentage of inhibition was calculated from control reactions without the inhibitor. The inhibitory effect of the tested compounds was routinely estimated at a concentration of 100 μM on MMP-13. […] Results were analyzed using SoftMax Pro software version 5.4.3 (Molecular Devices, Sunnyvale, CA, USA) and Prism Software version 5.0 (GraphPad Software, Inc., La Jolla, CA, USA).

A further data set concerns the target T2, MMP-1 (Homo sapiens, UniProt P03956).
T2 sequence (P03956 100-469): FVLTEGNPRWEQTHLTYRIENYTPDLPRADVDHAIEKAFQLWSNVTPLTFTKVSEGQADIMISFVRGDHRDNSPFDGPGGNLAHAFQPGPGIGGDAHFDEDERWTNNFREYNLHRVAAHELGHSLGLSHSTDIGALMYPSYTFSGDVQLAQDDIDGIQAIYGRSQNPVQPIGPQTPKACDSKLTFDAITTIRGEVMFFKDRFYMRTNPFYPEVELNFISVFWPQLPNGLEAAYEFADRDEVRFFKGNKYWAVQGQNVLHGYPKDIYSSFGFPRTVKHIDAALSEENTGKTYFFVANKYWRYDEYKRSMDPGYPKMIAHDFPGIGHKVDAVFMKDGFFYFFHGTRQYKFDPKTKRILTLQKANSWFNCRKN
The data set is described as follows: Fluorometric enzyme inhibition assay on MMP-1.

The target in a further data set is T3, MMP-2 (Homo sapiens, UniProt P08253).
T3 sequence (P08253 110-660): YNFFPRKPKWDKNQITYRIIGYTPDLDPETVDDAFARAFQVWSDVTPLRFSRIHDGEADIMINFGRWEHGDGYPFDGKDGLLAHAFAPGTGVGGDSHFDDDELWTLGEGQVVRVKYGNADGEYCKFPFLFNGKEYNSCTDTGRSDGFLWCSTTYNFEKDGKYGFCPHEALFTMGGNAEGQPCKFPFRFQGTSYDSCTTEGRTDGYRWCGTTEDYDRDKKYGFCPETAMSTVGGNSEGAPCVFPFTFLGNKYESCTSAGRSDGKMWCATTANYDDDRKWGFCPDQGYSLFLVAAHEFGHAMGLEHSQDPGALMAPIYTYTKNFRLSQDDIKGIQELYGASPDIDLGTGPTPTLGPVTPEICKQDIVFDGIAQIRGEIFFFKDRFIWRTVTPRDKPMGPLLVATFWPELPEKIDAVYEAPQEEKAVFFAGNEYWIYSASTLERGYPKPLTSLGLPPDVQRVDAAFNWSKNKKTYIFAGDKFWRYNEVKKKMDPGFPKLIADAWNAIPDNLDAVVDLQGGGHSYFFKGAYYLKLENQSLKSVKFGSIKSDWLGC
The data set is described as follows: Fluorometric enzyme inhibition assay on MMP-2.

The target in another data set is MMP-9 (Homo sapiens, UniProt P14780). The data set is described as follows: Fluorometric enzyme inhibition assay on MMP-9.
The next data set has as its target T4, MMP-13 (Homo sapiens, UniProt P45452).
T4 construct: purchased Merck Millipore (Burlington, MA, USA)
The data set can be described thus: Fluorometric enzyme inhibition assay on MMP-13. In kind it is biochemical. The conditions noted are these: mean ± SD of three independent experiments.
Excerpt: ARP100 [26], a hydroxamate-based MMP inhibitor previously developed by our research group, was used in the same assay conditions as the reference compound.
as §1, §2

Sequence of MMP-9 (P14780 107-707 limits assumed): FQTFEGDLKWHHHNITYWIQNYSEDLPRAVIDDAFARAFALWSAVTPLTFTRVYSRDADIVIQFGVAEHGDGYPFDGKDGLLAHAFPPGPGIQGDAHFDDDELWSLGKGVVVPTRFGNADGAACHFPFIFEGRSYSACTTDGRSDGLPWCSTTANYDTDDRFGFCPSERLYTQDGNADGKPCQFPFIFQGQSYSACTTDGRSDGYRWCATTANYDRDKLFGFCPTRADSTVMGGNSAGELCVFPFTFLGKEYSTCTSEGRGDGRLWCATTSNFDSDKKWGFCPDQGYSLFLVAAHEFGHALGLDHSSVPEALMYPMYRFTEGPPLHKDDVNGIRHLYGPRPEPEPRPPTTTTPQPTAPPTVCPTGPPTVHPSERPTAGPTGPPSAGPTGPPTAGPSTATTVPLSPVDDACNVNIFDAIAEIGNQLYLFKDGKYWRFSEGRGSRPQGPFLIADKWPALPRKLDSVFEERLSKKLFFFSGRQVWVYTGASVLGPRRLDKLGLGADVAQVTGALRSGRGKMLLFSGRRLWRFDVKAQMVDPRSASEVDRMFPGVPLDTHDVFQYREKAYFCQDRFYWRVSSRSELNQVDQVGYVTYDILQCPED

`N#C/C(=C\c1cn(Cc2ccc(Cl)cc2)c2ccccc12)c1nn(-c2ccccc2)c(N)c1C#N` [Compound 11]: the IC50 – broadly, the concentration at which inhibition is half-maximal – against MMP-14 was 94 ± 5.5 µM; at MMP-1, 99 ± 8 µM; against MMP-2 it was 60 ± 4.6 µM; at MMP-9, 66 ± 4.6 µM.
In the same order, the values of `O=C(COC(=O)c1ccccc1Sc1ccc([N+](=O)[O-])cc1)c1ccc(-c2ccccc2)cc1` [Compound 12] are 67 ± 4.6 µM, 75 ± 4 µM, 47 ± 1.6 µM and 72 ± 4.8 µM.
In the same order, the values of `C/C(=N\NC(=O)Cc1ccc([N+](=O)[O-])cc1)c1ccc(NC(=O)c2ccc(Br)o2)cc1` [Compound 13, (E)-5-bromo-N-(4-(1-(2-(2-(4-nitrophenyl)acetyl)hydrazineylidene)ethyl)phenyl)furan-2-carboxamide] are 63 ± 5.4 µM, 91 ± 0.8 µM, 99 ± 6 µM and 68 ± 3 µM.
`C/C(=N\NC(=O)Cc1ccc([N+](=O)[O-])cc1)c1ccc(NC(=O)c2ccc(S(N)(=O)=O)o2)cc1` [Compound 13a]: the melting point (usually the temperature, or range, at which the solid turns liquid) lay in the range of 255 to 258 °C. This molecule also returned an IC50 at MMP-13 above 100 µM.
For the molecule `C/C(=N\NC(=O)Cc1ccc([N+](=O)[O-])cc1)c1ccc(NC(=O)c2ccc(CO)o2)cc1` [Compound 13b, (E)-5-(hydroxymethyl)-N-(4-(1-(2-(2-(4nitrophenyl)acetyl)hydrazineylidene)ethyl)phenyl) furan-2-carboxamide], the melting point is 238 to 241 °C. This molecule gave an IC50 against MMP-13 above 100 µM.
Consider `O=C(Cc1ccc([N+](=O)[O-])cc1)N/N=C/c1ccc(NC(=O)c2ccc(Br)o2)cc1` [Compound 13c, (E)-5-bromo-N-(4-((2-(2-(4-nitrophenyl)acetyl)hydrazineylidene)methyl)phenyl)furan-2-carboxamide], for which the melting point lay in the range of 277 to 279 °C.
Turning to `O=C(Cc1ccc([N+](=O)[O-])cc1)N/N=C/c1ccc(NC(=O)c2ccc(CO)o2)cc1` [Compound 13d, (E)-5-(hydroxymethyl)-N-(4-((2-(2-(4-nitrophenyl)acetyl)hydrazineylidene)methyl)phenyl) furan-2-carboxamide], the melting point was in the range of 246 to 248 °C. Besides, on MMP-13, 40 ± 3.5 µM corresponded to half-maximal inhibition (IC50).
In the same order, the values of `C/C(=N\NC(=O)Cc1ccc(-c2nc(C)no2)cc1)c1ccc(NC(=O)c2ccc(Br)o2)cc1` [Compound 13e, (E)-5-bromo-N-(4-(1-(2-(2-(4-(3-methyl-1,2,4-oxadiazol-5-yl)phenyl)acetyl)hydrazineylidene)ethyl)phenyl)furan-2-carboxamide] are 252 to 255 °C and above 100 µM.
The molecule `C/C(=N\NC(=O)Cc1ccc(-c2nc(C)no2)cc1)c1ccc(NC(=O)c2ccc(CO)o2)cc1` [Compound 13f, (E)-5-(hydroxymethyl)-N-(4-(1-(2-(2-(4-(3-methyl-1,2,4-oxadiazol-5-yl)phenyl)acetyl)hydrazineylidene)ethyl)phenyl)furan-2-carboxamide] showed a melting point of 243 to 246 °C.
On the same count and under the same terms, with `Cc1noc(-c2ccc(CC(=O)N/N=C/c3ccc(NC(=O)c4ccc(CO)o4)cc3)cc2)n1` [Compound 13g, (E)-5-(hydroxymethyl)-N-(4-((2-(2-(4-(3-methyl-1,2,4-oxadiazol-5-yl)phenyl)acetyl) hydrazono)methyl)phenyl)furan-2-carboxamide] the figure was 232 to 235 °C.
On to `C/C(=N\NC(=O)Cc1ccc(C(=O)O)cc1)c1ccc(NC(=O)c2ccc(Br)o2)cc1` [Compound 13h, (E)-4-(2-(2-(1-(4-(5-bromofuran-2-carboxamido)phenyl)ethylidene)hydrazineyl)-2-oxoethyl)benzoic acid], for which the melting point fell in the range of 292 to 295 °C.
The same measure, in the same setting: with `C/C(=N\NC(=O)Cc1ccc(C(=O)O)cc1)c1ccc(NC(=O)c2ccc(CO)o2)cc1` [Compound 13i, (E)-4-(2-(2-(1-(4-(5-(hydroxymethyl)furan-2-carboxamido)phenyl)ethylidene)hydrazineyl)-2-oxoethyl)benzoic acid] the figure was 232 to 235 °C.
For `O=C(Cc1ccc(C(=O)O)cc1)N/N=C/c1ccc(NC(=O)c2ccc(Br)o2)cc1` [Compound 13l, (E)-4-(2-(2-(4-(5-bromofuran-2-carboxamido)benzylidene)hydrazineyl)-2-oxoethyl)benzoic acid], the melting point lay in the range of 307 to 310 °C.
For `O=C(Cc1ccc(C(=O)O)cc1)N/N=C/c1ccc(CNC(=O)c2ccc(Br)o2)cc1` [Compound 13m, (E)-4-(2-(2-(4-((5-bromofuran-2-carboxamido)methyl)benzylidene)hydrazineyl)-2-oxoethyl)benzoic acid], the IC50 is above 200 µM on MMP-14, 177 ± 20 µM at MMP-1, 3.6 ± 0.4 µM against MMP-2 and 50 ± 3.2 µM against MMP-9.
As to `O=C(Cc1ccc(-c2nnn[nH]2)cc1)N/N=C/c1ccc(NC(=O)c2ccc(Br)o2)cc1` [Compound 13n, (E)-N-(4-((2-(2-(4-(1H-tetrazol-5-yl)phenyl)acetyl)hydrazineylidene)methyl)phenyl)-5-bromofuran-2-carboxamide], the melting point was in the range of 262 to 265 °C.
Still for that read-out and setting: then `O=C(Cc1ccc(-c2nnn[nH]2)cc1)N/N=C/c1ccc(CNC(=O)c2ccc(Br)o2)cc1` [Compound 13o, (E)-N-(4-((2-(2-(4-(1H-tetrazol-5-yl)phenyl)acetyl)hydrazineylidene)methyl)benzyl)-5-bromofuran-2-carboxamide], with 245 to 248 °C.
